# Source: patent publication US8241846B1, “Hedgehog pathway modulation and uses thereof for treating, preventing and/or diagnosing cancer” (Institut de Recherches Cliniques de Montreal, priority 2008, dated 2012)
# Tested on: GCP purified from post-natal day 4 rat cerebellum
# Assay: Ki-67 proliferation of electroporated GCP overexpressing BOC, with Shh and Smo inhibitor
# Format: cell-based
# Conditions: 10 nM Shh plus SANT-1
# Description: GCP purified from post-natal day 4 rat cerebellum were co-electroporated with either a combination of BOC with a red fluorescence protein expressing plasmids (BOC) or with a control empty plasmid with a red fluorescence protein expressing plasmid (control). Proliferation was evaluated by measuring the percentage of Ki-67 positive cells among electroporated cells in absence or in presence of sonic hedgehog (Shh) and also in presence of Shh in combination with an inhibitor of Smo (SANT-1);
# GCP purified from post-natal day 4 rat cerebellum were co-electroporated with either a combination of a plasmid containing a nucleic acid encoding murine BOC with a red fluorescent protein (RFP)-expressing plasmids (BOC) (both genes under the control of the chicken beta-actin promoter) or with a control empty plasmid with a red fluorescent protein-expressing plasmid (control). Proliferation was evaluated by measuring the percentage of Ki-67-positive cells among electroporated cells in the presence or absence of Shh. In addition, the role of the Hh signalling protein Smoothened (Smo) was tested using an inhibitor of Smo (SANT-1) in combination with Shh.
compound,measurement,value
Cc1nn(-c2ccccc2)c(C)c1/C=N/N1CCN(Cc2ccccc2)CC1 [SANT-1],effect on BOC-mediated increase in percentage of Ki-67-positive cells,prevents this increase
